Measured values published in patent publication US11179455B2, “Use of a growth hormone secretagogue peptide as a vaccine adjuvant” (priority 2016, dated 2021).
Bridge positions count the residues as written; N and C are the ends. Square brackets hold non-standard residues; d marks the D form. Ends that are not written are not given here.

Key:
OVA [1] = test: Humoral immune response against OVA in mice, A233 co-administered; type: in vivo, BALB/c mice; conditions: i.p.; 5 μg OVA + 10 μg A233/animal, Freund's adjuvant; vs OVA alone; day 22
Experimental: To evaluate whether the peptide A233 exerts an adjuvant effect on OVA, 18 female BALB/c mice were used. Mice received 150 μL of immunogen in all groups, by i.p route, which was given to the animals on days 1 and 15 of the immunization schedule. Blood samples were taken at days 0 (preimmune serum), 8, 15, 22, 36, 43 and 50. The titers of total IgG present in the sera were evaluated. The animals were immunized with 5 μg OVA/animal and 10 μg A233/animal (Group 2), or with 5 μg of OVA/animal (Group 3). The control group was injected with PBS (Group 1). All immunogens were emulsified with Freund's adjuvant.

tilapia larvae = conditions: immersion baths; cited from earlier work
tilapia leukocytes = conditions: in vitro; cited from earlier work
P0 [2] = test: Anti-P0 IgM response to P0-TT in clarias; type: in vivo, Clarias gariepinus; conditions: i.p.; P0-TT 1 μg/g + 20 μg peptide per animal, Montanide ISA 50; vs P0-TT without peptide; day 28
Experimental: […]. For the experiment, 4 study groups of C. gariepinus were formed, with 12 animals in each one. These animals were immunized by i.p. route with 1 μg of the P0-TT protein per gram of animal weight (Group 2) or with the same dose of the chimeric protein P0-TT (1 μg/g of animal weight) co-administered with 20 μg of either GHRP-6 or A233 per animal (Groups 3 and 4, respectively), in a total volume of 120 μL. The control group (Group 1) received the same volume of PBS. The immunogens corresponding to all groups were emulsified with Montanide ISA 50 oily adjuvant. The immunization was performed under the same conditions, on days 0 and 14 of the administration schedule. Blood samples were taken at days 0, 21, 28 and 35 counted from the start of the experiment.

my32 = test: Anti-my32 IgM response to P0-my32 in tilapia; type: in vivo, Oreochromis niloticus; conditions: i.p., day 28; for Anti-my32 IgM antibody titers: P0-my32 1 μg/g co-administrated with 20 μg peptide, Montanide ISA 50, vs P0-my32
Source text: (§1) The chimeric protein P0-my32 was generated by cloning the complementary deoxyribonucleic acid (cDNA) encoding a 35 amino acid peptide of the L. salmonis P0 ribosomal protein fused to the N-terminal end of the cDNA encoding the my32 protein of the same ectoparasite (Carpio et al., 2013; Exp. Parasitol 135: 188-199), in a vector designed for the induced expression of genes of interest in the host bacterium E. coli. This protein was produced in the bacterium and purified, as a fusion protein with a tail of histidine, by metal chelate affinity chromatography.
(§2) For the accomplishment of the immunization experiment, 6 study groups of male juveniles of Oreochromis niloticus, were formed, with 15 animals each. In all groups, the immunogen was administered by i.p. route, adjuvanted with Montaide ISA 50.
(§3) The experimental groups received the following immunogens:
(§4) Group 2: P0-my32 (1 μg/g of fish weight)
(§5) Group 3: P0-my32 (1 μg/g of fish weight) co-administrated with 20 μg GHRP-6
(§6) Group 4: P0-my32 (1 μg/g of fish weight) co-administrated with 20 μg A233
(§7) Group 5: P0-my32 (1 μg/g of fish weight). The fish in this group were fed with feed formulated with 100 μg of GHRP-6 per kg of feed, twice daily, for one week before and one week after the administration of my32 in injections.
(§8) During the course of the experiment, the fish in groups 1 to 4 were fed twice daily with a balanced unmedicated commercial formula, at the rate of 1% of their body weight. Immunizations were performed on days 0 and 14 of the schedule. Blood samples were taken at days 0, 21, 28 and 35 from the start of the experiment.

P0 [3] = test: Anti-P0 IgM response to P0-my32 in tilapia; type: in vivo, Oreochromis niloticus; conditions: i.p., day 28; for Anti-P0 IgM titer: P0-my32 1 μg/g co-administrated with 20 μg peptide, Montanide ISA 50, vs P0-my32
Source text: as §1, §2, §3, §4, §5, §6, §7, §8

activated macrophages = conditions: mouse, in vivo; cited from earlier work
OVA [4] = test: Humoral immune response against OVA in mice, GHRP-6 co-administered; type: in vivo, BALB/c mice; conditions: for Total IgG titers against OVA: GHRP-6 10 μg + OVA 5 μg/animal, Freund's adjuvant, vs OVA without GHRP-6
Experimental: Thirty-six female BALB/c mice were used. Six study groups, with 6 animals each, were separated. Three groups were immunized by s.c route and the rest of them were treated by i.p route. In all groups, the immunogens were emulsified with Freund's adjuvant.
Group 1: Placebo (phosphate buffered saline, abbreviated PBS). s.c route.
Group 2: Placebo (PBS). i.p. route.
Group 3: GHRP-6 at 10 μg/animal and OVA at 5 μg/animal. s.c. route.
Group 4 GHRP-6 at 10 μg/animal and OVA at 5 μg/animal. i.p route.
Group 5: OVA 5 μg/animal. s.c. route.
Group 6: OVA 5 μg/animal. i.p. route.
Mice received 150 μL of the immunogen in all groups, which was administered to the animals on days 1 and 15 of the immunization schedule. Blood extractions were performed on days 0 (pre-immune serum), 8, 15, 22, 36, 43 and 50. Total IgG titers, IgG1 and IgG2a were evaluated. Complete Freund's Adjuvant (CFA) was used in the first immunization and Incomplete Freund's Adjuvant (IFA) in the next one. The animals of the group immunized with GHRP-6 and OVA, by s.c route, had higher titers (with statistical significance: p<0.05) than those of the group receiving OVA without GHRP-6, by the same route, on days 22, 36, 43 and 50 of the experiment (FIG. 1A). Animals injected with the same immunogens, but by i.p. route, had the same behavior on days 36 and 43 of the experiment (FIG. 1 B).

Aeromonas hydrophila [5] = test: Controlled challenge with Aeromonas hydrophila in immunized common carp; type: in vivo, Cyprinus carpio; conditions: challenge on day 21 by i.p injection of LD50 of the bacterium; mortality recorded for 7 days
Experimental: The experiment was carried out with common carp (C. carpio) of 30±5 g. These animals were kept in 250 L aquaria, at a temperature of 30±2° C. Three experimental groups, of 20 carps each, were established and the animals were injected by i.p. route with:
Group 1: PBS+Montanide ISA 50
Group 2: Inactivated A. hydrophila cells (1×10^8 CFU)+Montanide ISA 50
(§9) Group 3: Inactivated A. hydrophila cells (1×10^8 CFU)+20 μg GHRP-6/fish+Montanide ISA 50.
Fish were injected on day 0 and 14. The challenge was performed on day 21, by i.p injection of the lethal dose 50 (LD50) of the bacterium, and the mortality in each group was recorded for 7 days. The relative survival rate (RSR) was calculated as: RSR(%)=(% mortality of controls−% mortality of treated animals)/(% mortality of controls)×100.

[6] = system: C2 antigen, a Dengue virus capsid protein; test: Humoral immune response against C2 antigen in mice, GHRP-6 co-administered; type: in vivo, BALB/c mice; conditions: s.c.; 10 μg C2 + 10 μg GHRP-6, aluminum hydroxide; vs C2 without GHRP-6; day 28
Experimental: The C2 antigen, a Dengue virus capsid protein, was obtained as a recombinant protein in Escherichia coli, with a molecular weight of 15 kDa. To evaluate the humoral and cellular immune response in mice vaccinated with C2, in presence or absence of GHRP-6, 24 female BALB/c mice, 6-weeks old, were selected. They were distributed into 3 groups. Each animal was given an immunogen, according to the experimental group:
Group 2: 10 μg C2 co-administrated with 10 μg GHRP-6
In all groups, the immunogens further comprised aluminum hydroxide, also known as alum. Immunizations were performed by s.c route, on days 0, 15 and 30 of the immunization schedule. Blood samples were taken at days 0 (pre-immune), 7, 16, 21, 28 and 35, to assess total IgG titers.

juvenile tilapia = conditions: orally fed; cited from earlier work
Aeromonas hydrophila [7] = test: Agglutinating antibodies against Aeromonas hydrophila in common carp; type: in vivo, Cyprinus carpio; conditions: i.p.; inactivated cells 1×10^8 CFU + 20 μg GHRP-6/fish + Montanide ISA 50; vs bacterium without GHRP-6; day 21
Experimental: The experiment was carried out with carps (C. carpio) of 40±10 g. These animals were kept in 600 L aquaria, at a temperature of 28±2° C. Three experimental groups, of 10 carps each, were established and injected by i.p. route with the following immunogens:
Group 1: PBS+Montanide ISA 50.
Group 2: Inactivated A. hydrophila cells (1×10^8 Colony Forming Units, abbreviated CFU)+Montanide ISA 50.
as §9
Fish were injected on days 0 and 14, and blood samples were collected from the caudal vein on days 0 and 21. […] The preparation of A. hydrophila cells and the measurement of antibody titers were performed according to previous reports (Yin et al. ((1996) Fish & Shellfish Immunol. 6, 57-69).

[8] = system: peptide P0 of R. sanguineus; test: Humoral immune response against peptide P0 of R. sanguineus in mice, GHRP-6 co-administered; type: in vivo, BALB/c mice; conditions: i.p.; 100 μg P0 + 200 μg GHRP-6, Freund's adjuvant; vs P0 without GHRP-6; day 36
Experimental: The peptide P0 is a fragment corresponding to the region of less sequence identity between the ribosomal protein P0 of the tick R. sanguineus and its mammalian host. To evaluate the humoral immune response stimulated by the co-administration of GHRP-6 and P0, 24 female, 6-week old BALB/c mice were selected and divided into three groups of 8 mice. Each animal received 150 μL of immunogen, by i.p route, on days 1, 15 and 29 of the immunization schedule. In the first immunization FCA was employed, and FIA was used in the other two administrations.
Group 3. 100 μg of P0 co-administrated with 200 μg of GHRP-6.
Blood samples were taken on days 0 (pre-immune serum), 8, 16, 21, 28, 36, 43, 50 and 58, to determine the levels of total IgG.

rainbow trout leucocytes = conditions: cited from earlier work
newly hatching chickens = conditions: dose of 100 ng in ovo, day 10 of incubation; cited from earlier work
[9] = serum of day 36, s.c and i.p routes, OVA with vs without GHRP-6
[10] = Group 3 (with GHRP-6) vs Group 2

A233: growth hormone secretagogue peptide, structural analogue of GHRP-6 (GKFDLSPEHQ; lactam 2-4 (inferred))
Anti-OVA antibody titers (total IgG) (OVA [1]): significant increase | Antioxidant defense, enzyme superoxide dismutase (tilapia larvae): stimulates | Antiprotease activity (tilapia larvae): stimulates | Lectin titers (tilapia larvae): stimulates | Production of indicators of phagocytic activity, such as superoxide anion (tilapia leukocytes): stimulated | Anti-P0 IgM antibody titers (P0 [2]): same effect | Anti-my32 IgM antibody titers (my32): increase | Anti-P0 IgM titer (P0 [3]): increase

GHRP-2
Arthritis (activated macrophages): attenuated | Release of interleukin 6 (IL-6) from activated macrophages (activated macrophages): significantly inhibited | Release of nitric oxide from activated macrophages (activated macrophages): significantly inhibited

His-D-Trp-Ala-Trp-D-Phe-Lys-NH2 (H[dW]AW[dF]K-NH2) [GHRP-6, synthetic growth hormone releasing peptide, hexamer, used as molecular adjuvant]
Total IgG titers against OVA (OVA [4]; i.p. route, days 36 and 43): same behavior | IgG1/IgG2a (OVA [4]; intraperitoneal route, mean of the six animals in the group): significantly superior | Total IgG titers against OVA (OVA [4]; s.c. route, days 22, 36, 43 and 50, p<0.05): higher titers | IgG1 titers (OVA [4]; [9]): higher | IgG2a titers (OVA [4]; [9]): No significant differences | Anti-P0 IgM antibody titers (P0 [2]): increase | Relative survival rate (RSR) (Aeromonas hydrophila [5]): 95% | Anti-C2 IgG titer [6]: significant increase | Number of anti-my32 responder animals, IgM titers greater than 1:1000 (my32; [10]): higher | Anti-my32 IgM antibody titers (my32): increase | Lectin titers (juvenile tilapia): increase | Number of intraepithelial lymphocytes of the gastric mucosa (juvenile tilapia): increase | Number of anti-P0 responder animals, IgM titers greater than 1:1000 (P0 [3]; [10]): higher | Anti-P0 IgM titer (P0 [3]): same effect | Titers of agglutinating antibodies against A. hydrophila (Aeromonas hydrophila [7]): significantly higher | Anti-P0 IgG titers [8]: significant increase

[D-Lys3]-GHRP-6
Production of reactive oxygen species (O^2′—) after prior incubation with antagonist (rainbow trout leucocytes; prior incubation before ghrelin): decreased

ghrelin: endogenous ligand for the growth hormone secretagogues receptor (GHS-R) (GSSFLSPEHQRVQQRKESKKPPAKLQPR; ends and bridges not checked; UniProt Q9UBU3 24-51, looked up)
Count of heterophil, basophils and eosinophils, and heterophil/lymphocyte ratio (newly hatching chickens): increase | Lymphocytes (newly hatching chickens): decreased | Levels of GH messenger ribonucleic acid (rainbow trout leucocytes; in vitro): increases | Production of superoxide anion (rainbow trout leucocytes; in vitro): increases | Superoxide dismutase (rainbow trout leucocytes; in vitro): increases | Arthritis (activated macrophages): attenuated | Release of interleukin 6 (IL-6) from activated macrophages (activated macrophages): significantly inhibited | Release of nitric oxide from activated macrophages (activated macrophages): significantly inhibited
